Results reported in US7498353B2, “Heterocyclic anti-viral compounds comprising metabolizable moieties and their uses” (priority 2005, dated 2009).

Experiments:
[1] = tested on: HCV NS5A protein in 9-13 replicon cells; experiment: Quantitative Western blot replicon assay (HEPC_REPLICON-ICWESTERN); format: cell-based, Hepatitis C virus (HCV); details: Hepatitis C virus; 9-13 replicon cells, 50% reduction in NS5A protein; read-out: HEPC_REPLICON-ICWESTERN Result Value (IC50)
Method: Alternatively, the inhibitory activity of the metabolically active agents of the prodrugs can be confirmed using a quantitative Western immunoblot assay utilizing antibodies specific for HCV non-structural proteins, such as NS3, NS4A NS5A and NS5B. In one embodiment of this assay, replicon cells are treated with varying concentrations of test prodrug to determine the concentration of the metabolically active agent of the test prodrug that yields a 50% reduction in the amount of a non-structural protein produced as compared to a control sample (IC50). A single non-structural protein may be quantified or multiple non-structural proteins may be quantified. Antibodies suitable for carrying out such immunoblot assays are available commercially (e.g., from BIODESIGN International, Saco, Me.).
Certain prodrugs of the invention, which may inhibit HCV translation or replication prior to metablism and/or are metabolized into active agents, were also tested for their ability to inhibit HCV replication using a quantitative Western blot analysis with antibodies specific for the HCV NS5A or other non-structural proteins. Actively dividing 9-13 replicon cells were seeded into 6-well plates at a density of 1×10^5 cells/well in a volume of 2 ml/well and incubated at 37° C. and 5% CO2 for 24 hours. Various concentrations of test prodrugs (in a volume of 10 ul) were added to the wells and the cells incubated for another 48 hours. Protein samples were prepared from the cultured cells, resolved on a SDS-PAGE gel and transferred to a nitrocellulose membrane. The membrane was blocked with 5% non-fat milk in PBS for 1 hour at room temperature. Primary antibody (anti NS5A antibody; BIODESIGN International, Saco, Me.) incubation was performed for 1 hour at room temperature, after which the membrane was washed 3 times (for 15 min per time) with PBST (PBS plus 0.1% Tween 20). Horseradish peroxidase conjugated secondary antibody incubation was performed for 1 hour at room temperature and the membrane was washed 3 times (for 15 min per time) with PBST. The membrane was then soaked in substrate solution (Pierce) and exposed to a film or quantified using an imager. In this assay, the amount of test prodrug that is believed to be transformed into an active agent under the given conditions that yielded a 50% reduction in the amount of NS5A protein translated as compared to a control sample (IC50) was determined.

[2] = tested on: HCV replicon in 5-2 Luc replicon-comprising cells; experiment: HCV replicon assay, luciferase readout (HEPC_REPLICON-LUC); format: cell-based; details: Hepatitis C virus; 5-2 Luc replicon cells, 50% reduction in luciferase emission; read-out: HEPC_REPLICON-LUC Result Value (IC50)
Description: In one embodiment, the inhibitory activity of the metabolically active agent of the prodrug can be confirmed in a replicon assay that assesses the ability of a test compound to block or inhibit HCV replication in replicon cells. One example of a suitable replicon assay is the liver cell-line Huh 7-based replicon assay described in Lohmann et al., 1999, Science 285:110-113. A specific example of this replicon assay which utilizes luciferase translation is provided in the Examples Section. In one embodiment of this assay, the amount of test prodrug that yields a 50% reduction in translation as compared to a control cell (IC50) may be determined.
The inhibitory activity of certain prodrugs of the invention, which may inhibit HCV translation or replication prior to metablism and/or are metabolized into active agents, was confirmed using an HCV replicon assay. The HCV replicon can include such features as the HCV 5′ untranslated region including the HCV IRES, the HCV 3′ untranslated region, selected HCV genes encoding HCV polypeptides, selectable markers, and a reporter gene such as luciferase, GFP, etc. In the assay, actively dividing 5-2 Luc replicon-comprising cells (obtained from Ralf Bartenschlager; see Lohmann et al., 1999, Science 285:110-113) were seeded at a density of between about 5,000 and 7,500 cells/well onto 96 well plates (about 90 μl of cells per well) and incubated at 37° C. and 5% CO2 for 24 hours. Then, the test prodrug (in a volume of about 10 μl) was added to the wells at various concentrations and the cells were incubated for an additional 24-48 hours before luciferase assay. The media was aspirated from each well and Bright-Glo (Promega, Madison, Wis.) luciferase assay reagents were added to each well according to the manufacturer's instructions. Briefly, the Bright-Glo reagent was diluted 1:1 with PBS and 100 μl of diluted reagent was added to each well. After 5 min of incubation at room temperature, luciferin emission was quantified with a luminometer. In this assay, the amount of test prodrug that yielded a 50% reduction in luciferase emission (IC50) was determined. This IC50 value may represent the antiviral activity of the prodrug itself, the activity of prodrug transformed into its active metabolized form, or a combination of the two.

Structure (SMILES)	IC50 [1]	IC50 [2]
CC(C)OC(=O)OCN(C(=O)C(Cl)Cl)c1ccnc(-c2cc(-c3c(Cl)cccc3Cl)no2)c1 [Cpd. No. 57, (2,2-Dichloro-N-(2-(3-(2,6-dichlorophenyl)isoxazol-5-yl)pyridin-4-yl)acetamido)methyl Isopropyl Carbonate]	1 to 20 µM	1 to 20 µM
CC[C@H](C)[C@H](NC(=O)OC(C)(C)C)C(=O)N[C@H](CN(C(=O)C(Cl)Cl)c1cccc(-c2cc(-c3c(Cl)cccc3Cl)no2)c1)C(C)C [Cpd. No. 28, tert-Butyl (2S,3S)-1-((S)-1-(2,2-Dichloro-N-(3-(3-(2,6-dichlorophenyl)isoxazol-5-yl)phenyl)acetamido)-3-methylbutan-2-ylamino)-3-methyl-1-oxopentan-2-ylcarbamate]	–	> 20 µM
CC(C)C(NC(=O)C(CCC(=O)OC(C)(C)C)NC(=O)OC(C)(C)C)C(=O)CCN(C(=O)C(Cl)Cl)c1ccnc(-c2cc(-c3c(Cl)cccc3Cl)no2)c1 (centres unmarked) [Cpd. No. 55, tert-Butyl 4-(tert-Butoxycarbonylamino)-5-(6-(2,2-dichloro-N-(2-(3-(2,6-dichlorophenyl)isoxazol-5-yl)pyridin-4-yl)acetamido)-2-methyl-4-oxohexan-3-ylamino)-5-oxopentanoate]	1 to 20 µM	< 1 µM
NCCN(C(=O)C(Cl)Cl)c1cccc(-c2cc(-c3c(Cl)cccc3Cl)no2)c1 [Cpd. No. 16, N-(2-Aminoethyl)-2,2-dichloro-N-(3-(3-(2,6-dichlorophenyl)isoxazol-5-yl)phenyl)acetamide]	1 to 20 µM	1 to 20 µM
CC(C)C(N)C(=O)CCN(C(=O)C(Cl)Cl)c1ccnc(-c2cc(-c3c(Cl)cccc3Cl)no2)c1 (centres unmarked) [Cpd. No. 3, N-(4-Amino-5-methyl-3-oxohexyl)-2,2-dichloro-N-(2-(3-(2,6-dichlorophenyl)isoxazol-5-yl)pyridin-4-yl)acetamide]	< 1 µM	< 1 µM
CC(C)[C@@H](NC(=O)OCN(C(=O)C(Cl)Cl)c1ccnc(-c2cc(-c3c(Cl)cccc3Cl)no2)c1)C(=O)OC(C)(C)C [Cpd. No. 58, (R)-tert-Butyl 2-(((2,2-Dichloro-N-(2-(3-(2,6-dichlorophenyl)isoxazol-5-yl)pyridin-4-yl)acetamido)methoxy)carbonylamino)-3-methylbutanoate]	1 to 20 µM	> 20 µM
CC(C)C(NC(=O)C(NC(=O)OC(C)(C)C)C(C)C)C(=O)CCN(C(=O)C(Cl)Cl)c1ccnc(-c2cc(-c3c(Cl)cccc3Cl)no2)c1 (centres unmarked) [Cpd. No. 47, tert-Butyl 1-(6-(2,2-Dichloro-N-(2-(3-(2,6-dichlorophenyl)isoxazol-5-yl)pyridin-4-yl)acetamido)-2-methyl-4-oxohexan-3-ylamino)-3-methyl-1-oxobutan-2-ylcarbamate]	< 1 µM	< 1 µM
CC(C)C(NC(=O)CN)C(=O)CCN(C(=O)C(Cl)Cl)c1ccnc(-c2cc(-c3c(Cl)cccc3Cl)no2)c1 (centres unmarked) [Cpd. No. 50, N-(4-(2-Aminoacetamido)-5-methyl-3-oxohexyl)-2,2-dichloro-N-(2-(3-(2,6-dichlorophenyl)isoxazol-5-yl)pyridin-4-yl)acetamide]	< 1 µM	< 1 µM
CC(C)[C@@H](N)C(=O)CCN(C(=O)C(Cl)Cl)c1ccnc(-c2cc(-c3c(Cl)cccc3Cl)no2)c1 [Cpd. No. 61, (R)-N-(4-Amino-5-methyl-3-oxohexyl)-2,2-dichloro-N-(2-(3-(2,6-dichlorophenyl)isoxazol-5-yl)pyridin-4-yl)acetamide]	–	< 1 µM
CC(C)C(NC(=O)C1CC(O)CN1C(=O)OC(C)(C)C)C(=O)CCN(C(=O)C(Cl)Cl)c1ccnc(-c2cc(-c3c(Cl)cccc3Cl)no2)c1 (centres unmarked) [Cpd. No. 53, tert-Butyl 2-(6-(2,2-Dichloro-N-(2-(3-(2,6-dichlorophenyl)isoxazol-5-yl)pyridin-4-yl)acetamido)-2-methyl-4-oxohexan-3-ylcarbamoyl)-4-hydroxypyrrolidine-1-carboxylate]	< 1 µM	< 1 µM
O=C(C(Cl)Cl)N(CCP(=O)(O)O)c1cccc(-c2cc(-c3c(Cl)cccc3Cl)no2)c1 [Cpd. No. 2, 2-(2,2-Dichloro-N-(3-(3-(2,6-dichlorophenyl)isoxazol-5-yl)phenyl)acetamido)ethylphosphonic acid]	> 20 µM	> 20 µM
CCC(C)C(N)C(=O)NC(C(=O)CCN(C(=O)C(Cl)Cl)c1ccnc(-c2cc(-c3c(Cl)cccc3Cl)no2)c1)C(C)C (centres unmarked) [Cpd. No. 52, 2-Amino-N-(6-(2,2-dichloro-N-(2-(3-(2,6-dichlorophenyl)isoxazol-5-yl)pyridin-4-yl)acetamido)-2-methyl-4-oxohexan-3-yl)-3-methylpentanamide]	< 1 µM	< 1 µM
CC(C)OCN(C(=O)C(Cl)Cl)c1ccnc(-c2cc(-c3c(Cl)cccc3Cl)no2)c1 [Cpd. No. 9, 2,2-Dichloro-N-(2-(3-(2,6-dichlorophenyl)isoxazol-5-yl)pyridin-4-yl)-N-(isopropoxymethyl)acetamide]	–	> 20 µM
CC(C)[C@H](NC(=O)OC(C)(C)C)C(=O)N[C@H](CN(C(=O)C(Cl)Cl)c1cccc(-c2cc(-c3c(Cl)cccc3Cl)no2)c1)C(C)C [Cpd. No. 27, tert-Butyl (S)-1-((S)-1-(2,2-Dichloro-N-(3-(3-(2,6-dichlorophenyl)isoxazol-5-yl)phenyl)acetamido)-3-methylbutan-2-ylamino)-3-methyl-1-oxobutan-2-ylcarbamate]	–	> 20 µM
CC(C)[C@H](NC(=O)OC(C)(C)C)C(=O)NCCN(C(=O)C(Cl)Cl)c1cccc(-c2cc(-c3c(Cl)cccc3Cl)no2)c1 [Cpd. No. 30, (S)-tert-Butyl 1-(2-(2,2-Dichloro-N-(3-(3-(2,6-dichlorophenyl)isoxazol-5-yl)phenyl)acetamido)ethylamino)-3-methyl-1-oxobutan-2-ylcarbamate]	–	> 20 µM
CC[C@H](C)[C@H](NC(=O)OC(C)(C)C)C(=O)NCCN(C(=O)C(Cl)Cl)c1cccc(-c2cc(-c3c(Cl)cccc3Cl)no2)c1 [Cpd. No. 29, tert-Butyl (2S,3S)-1-(2-(2,2-Dichloro-N-(3-(3-(2,6-dichlorophenyl)isoxazol-5-yl)phenyl)acetamido)ethylamino)-3-methyl-1-oxopentan-2-ylcarbamate]	–	> 20 µM
CC(C)[C@@H](CN(C(=O)C(Cl)Cl)c1cccc(-c2cc(-c3c(Cl)cccc3Cl)no2)c1)NC(=O)C1CC(O)CN1 (stereo partly drawn) [Cpd. No. 42, N-((S)-1-(2,2-Dichloro-N-(3-(3-(2,6-dichlorophenyl)isoxazol-5-yl)phenyl)acetamido)-3-methylbutan-2-yl)-4-hydroxypyrrolidine-2-carboxamide]	> 20 µM	–
CCOC(=O)CN(C(=O)C(Cl)Cl)c1ccnc(-c2cc(-c3c(Cl)cccc3Cl)no2)c1 [Cpd. No. 8, Ethyl 2-(2,2-Dichloro-N-(2-(3-(2,6-dichlorophenyl)isoxazol-5-yl)pyridin-4-yl)acetamido)acetate]	1 to 20 µM	–
CC(C)[C@@H](CN(C(=O)C(Cl)Cl)c1cccc(-c2cc(-c3c(Cl)cccc3Cl)no2)c1)NC(=O)OC(C)(C)C [Cpd. No. 21, (S)-tert-Butyl 1-(2,2-Dichloro-N-(3-(3-(2,6-dichlorophenyl)isoxazol-5-yl)phenyl)acetamido)-3-methylbutan-2-ylcarbamate]	1 to 20 µM	–
